{"source": "patent US20230134563A1", "about": "“SUBLINGUAL CANNABINOID COMPOSITIONS” (ALVIT LCS PHARMA LTD., priority 2017, published 2023)", "origin": "cited, not measured here", "conditions": "single component (oil or surfactant)"}
{"smiles": "CCCCCc1cc(O)c2c(c1)OC(C)(C)[C@@H]1CCC(C)=C[C@@H]21", "note": "[THC, tetrahydrocannabinol]", "values": [{"measurement": "HLB", "value": 0.754}]}
